One test addresses T1, mouse EP1 (Mus musculus, UniProt P35375).
T1 construct: expressed in transfected cells; host or cells: CHO cells
T1 sequence (P35375 1-405): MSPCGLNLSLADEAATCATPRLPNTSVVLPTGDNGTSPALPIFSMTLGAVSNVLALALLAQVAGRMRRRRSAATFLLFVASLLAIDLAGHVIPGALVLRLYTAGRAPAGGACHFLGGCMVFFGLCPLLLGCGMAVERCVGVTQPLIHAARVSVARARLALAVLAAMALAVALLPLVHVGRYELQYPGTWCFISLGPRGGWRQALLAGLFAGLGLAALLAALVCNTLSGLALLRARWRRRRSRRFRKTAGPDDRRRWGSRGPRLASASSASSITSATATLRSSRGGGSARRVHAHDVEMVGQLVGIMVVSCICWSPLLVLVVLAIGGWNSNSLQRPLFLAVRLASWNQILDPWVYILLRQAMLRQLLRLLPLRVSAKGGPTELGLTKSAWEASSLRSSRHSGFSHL
The test can be described thus: Binding assay using expression cell of prostanoids receptor subtype, EP1 ([3H]-PGE2 binding inhibition, CHO membrane fraction). The following applies: 2.5 nM [3H]-PGE2, 1 hour at room temperature, pH 6.0, read-out: Dissociation Constant Ki, EP1. As for the experimental part:
(§1) (i) Binding assay using expression cell of prostanoids receptor subtype
(§2) The preparation of membrane fraction was carried out according to the method of Sugimoto et al. [J. Biol. Chem., 267, 6463-6466 (1992)], using expression CHO cell of the prostanoids receptor subtype (mouse EP1, EP2, EP3α, EP4).
(§3) The standard assay mixture containing membrane fraction (0.5 mg/ml), and [3H]-PGE2 in a final volume of 200 μl was incubated for 1 hour at room temperature. The reaction was terminated by addition of 3 ml of ice-cooled buffer. The mixture was filtered through a GF/B glass filter under reduced pressure. The radioactivity associated with the filter was measured by liquid scintillation counting.
(§4) Kd and Bmax values were determined from Scatchard plots [Ann. N.Y. Acad. Sci., 51, 660 (1949)]. Non-specific binding was calculated as the binding in the presence of an excess (2.5 μM) of unlabeled PGE2. In the measurement of 3H-PGE2 binding inhibitory activity, 2.5 nM of [3H]-PGE2 and various concentrations of the compounds of the present invention were added. The following buffer was used in all reactions.
(§5) Buffer; 10 mM potassium phosphate (pH 6.0), 1 mM EDTA, 10 mM MgCl2, 0.1 M NaCl.
(§6) The dissociation constant Ki (μM) of each compound was calculated by the following equation.

The next test concerns the target T2, mouse EP2 (Mus musculus, UniProt Q62053).
T2 construct: expressed in transfected cells; host or cells: CHO cells
The test can be described thus: Binding assay using expression cell of prostanoids receptor subtype, EP2 ([3H]-PGE2 binding inhibition, CHO membrane fraction). As to conditions: 2.5 nM [3H]-PGE2, 1 hour at room temperature, pH 6.0, read-out: Dissociation Constant Ki, EP2. As for the experimental part: as §1, §2, §3, §4, §5, §6

The target of a further test is T3, mouse EP3α (Mus musculus, UniProt P30557).
T3 construct: expressed in transfected cells; host or cells: CHO cells
T3 sequence (P30557 1-365): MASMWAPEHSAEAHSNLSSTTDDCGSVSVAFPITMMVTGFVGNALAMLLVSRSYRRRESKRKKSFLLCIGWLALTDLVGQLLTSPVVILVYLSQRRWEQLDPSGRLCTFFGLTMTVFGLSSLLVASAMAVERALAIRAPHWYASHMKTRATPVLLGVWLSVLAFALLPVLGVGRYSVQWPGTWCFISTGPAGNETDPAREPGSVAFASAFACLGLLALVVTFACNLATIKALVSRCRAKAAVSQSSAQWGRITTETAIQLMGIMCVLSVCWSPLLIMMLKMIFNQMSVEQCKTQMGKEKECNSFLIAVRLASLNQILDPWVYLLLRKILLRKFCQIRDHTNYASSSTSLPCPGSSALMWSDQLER
The test can be described thus: Binding assay using expression cell of prostanoids receptor subtype, EP3α ([3H]-PGE2 binding inhibition, CHO membrane fraction). As to conditions: 2.5 nM [3H]-PGE2, 1 hour at room temperature, pH 6.0, read-out: Dissociation Constant Ki, EP3α. As for the experimental part: as §1, §2, §3, §4, §5, §6

The target in another test is T4, mouse EP4 (Mus musculus, UniProt P32240).
T4 construct: expressed in transfected cells; host or cells: CHO cells
T4 sequence (P32240 whole entry): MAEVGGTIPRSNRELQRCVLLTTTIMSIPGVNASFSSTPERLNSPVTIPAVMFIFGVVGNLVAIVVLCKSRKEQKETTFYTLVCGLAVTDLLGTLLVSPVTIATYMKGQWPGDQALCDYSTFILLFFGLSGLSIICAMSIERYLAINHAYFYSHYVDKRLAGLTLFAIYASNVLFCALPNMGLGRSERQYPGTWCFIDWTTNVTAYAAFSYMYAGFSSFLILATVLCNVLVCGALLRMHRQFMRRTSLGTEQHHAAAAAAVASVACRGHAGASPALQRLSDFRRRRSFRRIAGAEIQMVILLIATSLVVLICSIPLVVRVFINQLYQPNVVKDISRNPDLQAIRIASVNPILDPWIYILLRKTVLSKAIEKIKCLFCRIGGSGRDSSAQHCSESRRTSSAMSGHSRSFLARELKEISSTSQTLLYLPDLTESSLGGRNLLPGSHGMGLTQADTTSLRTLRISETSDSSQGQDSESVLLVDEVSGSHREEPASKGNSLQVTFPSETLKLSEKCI
The test can be described thus: Binding assay using expression cell of prostanoids receptor subtype, EP4 ([3H]-PGE2 binding inhibition, CHO membrane fraction). The following applies: 2.5 nM [3H]-PGE2, 1 hour at room temperature, pH 6.0, read-out: Dissociation Constant Ki, EP4. As for the experimental part:
as §1, §2, §3, §4, §5, §6

Bounds are passed on as bounds.

Seven molecules from patent US6288119A, “11,15-O-dialkylprostaglandin E derivatives, process for producing the same, and drugs containing the same as the active ingredient” (Ono Pharmaceuticals Co., Ltd., priority 1997, dated 2001) can be followed below.

T2 sequence (Q62053 whole entry): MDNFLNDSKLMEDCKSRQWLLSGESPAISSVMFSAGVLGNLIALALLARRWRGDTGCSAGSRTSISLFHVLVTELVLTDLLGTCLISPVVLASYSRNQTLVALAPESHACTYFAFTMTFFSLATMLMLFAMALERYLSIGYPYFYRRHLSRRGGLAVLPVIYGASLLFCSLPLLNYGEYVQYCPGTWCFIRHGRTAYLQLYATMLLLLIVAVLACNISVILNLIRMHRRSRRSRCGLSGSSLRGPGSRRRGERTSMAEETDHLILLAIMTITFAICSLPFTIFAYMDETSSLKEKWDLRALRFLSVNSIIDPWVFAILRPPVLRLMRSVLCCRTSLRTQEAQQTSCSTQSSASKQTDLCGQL

Regarding `CCCCC[C@@H](/C=C/[C@H]1[C@H](OC)CC(=O)[C@@H]1C/C=C\CCCC(=O)O)OC` [Example 1, 11α,15α-Dimethoxy-9-oxoprosta-5Z,13E-dienoic acid], the Ki (commonly a dissociation constant, usually derived from enzyme kinetics or from competition with a known ligand) was more than 10000 nM at mouse EP1, 2400 nM at mouse EP2, 3.6 nM at mouse EP3α and 4200 nM at mouse EP4.
For `CCCCCC[C@@H](/C=C/[C@H]1[C@H](OC)CC(=O)[C@@H]1C/C=C\CCCC(=O)O)OC` [1(e), 11α,15α-Dimethoxy-9-oxo-20-methylprosta-5Z,13E-dienoic acid], the Ki was 2400 nM at mouse EP1, 1300 nM at mouse EP2, 6.1 nM on mouse EP3α and 3700 nM at mouse EP4.
On the same counts, the results for `CCCCC(C)(C)[C@@H](/C=C/[C@H]1[C@H](OC)CC(=O)[C@@H]1C/C=C\CCCC(=O)O)OC` [1(b), 11α,15α-Dimethoxy-9-oxo-16,16-dimethylprosta-5Z,13E-dienoic acid] are 970 nM, 530 nM, 2.7 nM and 2500 nM.
With `CCCCC[C@@H](/C=C/[C@H]1[C@H](OCC)CC(=O)[C@@H]1C/C=C\CCCC(=O)O)OCC` [Example 2, 11α,15α-Diethoxy-9-oxoprosta-5Z,13E -dienoic acid], the Ki is more than 10000 nM at mouse EP1, 600 nM on mouse EP2, 40 nM at mouse EP3α and 5900 nM at mouse EP4.
For the molecule `CCCCC[C@@H](/C=C/[C@H]1[C@H](OC)CC(=O)[C@@H]1CCCCCCC(=O)O)OC` [1(a), 11α,15α-Dimethoxy-9-oxoprosta-13E-enoic acid], the Ki on mouse EP1 was more than 10000 nM; at mouse EP2 it was 1100 nM; on mouse EP3α it was 6.3 nM; at mouse EP4, 1300 nM.
The corresponding values for `COC(/C=C/[C@H]1[C@H](OC)CC(=O)[C@@H]1C/C=C\CCCC(=O)O)COc1ccccc1` (stereo partly drawn) [1(f), 11α,15α-Dimethoxy-9-oxo-16-phenoxy-17,18,19,20-tetranorprosta-5Z,13E-dienoic acid] are 310 nM, more than 10000 nM, 2.9 nM and more than 10000 nM.
As to `CCCCC[C@@H](/C=C/[C@@H]1[C@@H](C/C=C\CCCC(=O)O)[C@H](Cl)C[C@H]1OC)OC` [1(h), 11α,15α-Dimethoxy-9β-chloroprosta-5Z,13E-dienoic acid], the Ki at mouse EP1 was determined as 39 nM; at mouse EP2, 34 nM; at mouse EP3α, 1.7 nM; at mouse EP4, 73 nM.
